{
  "source": "patent US7455990B2",
  "about": "“Method of extracting recombinant hexose oxidase” (priority 1999, dated 2008)",
  "key": {"[1]": {"system": "cell suspension (HOX9910B)", "experiment": "Comparison between CTAB and other emulsifiers for extraction of HOX", "assay_type": "cell-based, Hansenula polymorpha", "details": "20 h, 25°C, control (cells and buffer) = 100", "experimental": "Five mL of cell suspension (cells+supernatant) was added to a 15 mL centrifuge tube (HOX9910B, 305 g cells/liter wet weight, 1.6 U/ml extracellular HOX activity). Cells were separated by centrifugation at 4000 g for 10 min. Cells were then re-suspended in 4.0 mL 25 mM citric acid, pH 6.3 supplemented with either CTAB, emulsifiers SLL, YN, capric acid, lysolecithin, or lecithin. The cells were then incubated for 20 hours at 25° C. (500 rpm)."}, "[2]": {"system": "cell suspension (HOX9926-7)", "experiment": "Extraction of HOX by CTAB combined with salts and at different temperatures", "assay_type": "cell-based, Hansenula polymorpha", "details": "for HOX activity, %: 26 h, 25°C, control = 100", "experimental": "In order to examine the mechanism of the CTAB effect, CTAB was combined with chaotrophic and nonchaotrophic salts. Five mL cell suspension (cells+supernatant) was added to a 15 mL centrifuge tube (HOX9926-7, 317 g cells/liter wet weight, 0.3 U/mL extracellular HOX activity). Cells were separated by centrifugation at 4000 g for 10 min. The supernatant was then supplemented with either CTAB, CTAB+NaCl, CTAB+urea, CTAB+ammonium sulphate, or the non-ionic detergent, octyl-glucoside. The cells were then re-suspended in 4.0 mL supernatant and incubated for 26 hours at 25° C. (500 rpm). In this experiment, the effect of shaking and temperature was also investigated. After incubation, the cell-free extract was used to estimate HOX activity using the HOX assay as outlined in Example 4."}, "Hansenula polymorpha [3]": {"system": "Hansenula polymorpha", "experiment": "HOX extraction with different quaternary ammonium compounds", "assay_type": "cell-based", "details": "final concentration 0.4% (w/v); 24 h, 25°C, 200 RPM; LTAB = 100", "experimental": "Several quaternary ammonium compounds were tested with respect to extraction of the intracellular HOX enzyme from Hansenula polymorpha. A sample of fermentation broth was withdrawn from a 6 L scale fermentation where the biomass concentration was approximately 340 g wet weight per L. One mL of a 4% (w/v) solution of each of the quaternary ammonium compounds listed in Table 8 was added to 9 mL of fermentation broth in plastic tubes. After 24 h of incubation at 25° C. at 200 RPM the tubes were centrifuged 10 min. at 12000 g. The supernatants were analysed for HOX activity using the HOX assay as previously described."}, "Hansenula polymorpha [4]": {"system": "Hansenula polymorpha", "experiment": "HOX extraction with CTAB compared to Triton X-100", "assay_type": "cell-based", "details": "for HOX activity: 22 h, 25°C, 200 rpm, control ferment 1.2", "experimental": "CTAB or Triton X-100 was added to 5 mL of ferment, (sample HOX9954, Mut 45, 18.10.99, HVP) in a centrifuge tube. Water was added to the control. The samples were incubated at 25° C. for 22 h at 200 rpm. After incubation the samples were centrifuged and the supernatant was analyzed for HOX activity as previously described."}, "H. polymorpha": {"system": "H. polymorpha", "experiment": "Comparison of mechanical and LTAB recovery of glucan lyase (DNS method)", "assay_type": "cell-based, Hansenula polymorpha", "details": "induced cells, transformants 2 and 8; 0.2% LTAB versus Mini Bead-Beater", "experimental": "The cells are resuspended in 5 mM sodium acetate pH=5.5 with 0.2% LTAB at 30% wet biomass in order to lyse the cells and release the intracellular glucan lyase.\nThe tubes are incubated over night with shaking at 37° C. The cells are harvested by centrifuging at 4000 rpm in 10 minutes and the glucan lyase activity is determined in the cell-free extract and in the pellet. This is done to check if LTAB had opened the cells successfully before starting the purification of glucan lyase.\nTwo transformants that expressed a high level of glucan lyase (transformant number 2 and 8) are grown at 24° C.\nTo compare the specific activity under repressed and induced conditions samples are collected when the cells are grown in YND+2% glucose (repressed) and in YND+1% glycerol with 1% methanol added on the second day of growth (induced).\nThe assay is performed as described in S. Yu et al., 1998. The red colour indicates glucan lyase activity is much stronger when the induced cells are opened with LTAB compared with opening of the cells mechanically on a Mini Bead-Beater (E1-E12 compared with C1-C12). […] When the cells are grown in YND+2% glucose a very low specific activity is observed as expected since the FMD promoter is repressed in this media. […] The assay detected a quite high glucan lyase activity in the pellet."}, "Hansenula polymorpha [5]": {"system": "Hansenula polymorpha", "experiment": "Time course of HOX extraction with CTAB, LTAB and CTAC", "assay_type": "cell-based", "details": "25°C", "experimental": "The time course of HOX extraction was studied with CTAB, LTAB and CTAC. A fermentation sample containing 280 g wet weight of Hansenula polymorpha per L was withdrawn from the fermentor. A 4% (w/v) solution of CTAB, LTAB and CTAC was added to a final concentration of 0.2 or 0.4% (w/v) to plastic tubes containing 9 mL of fermentation broth. After 0, 7, 17, 24, and 48 h of incubation at 25° C. at 200 RPM the tubes were centrifuged 10 min. at 12000×g. The supernatants were analysed for HOX activity using the HOX assay as previously described."}, "[6]": {"system": "Pichia pastoris strain #349", "experiment": "HOX extraction with LTAB from Pichia pastoris", "assay_type": "cell-based", "details": "180 μL of 10% (w/v) LTAB in 9 mL broth; 24 h, 30°C; control = 100", "experimental": "The extracting effect of LTAB was tested on the Pichia pastoris strain #349 that produces HOX intracellularly. A sample of fermentation broth was withdrawn from a 6 L scale fermentation where the biomass concentration was approximately 232 g wet weight per L. Nine mL of fermentation broth was added to plastic tubes together with 0 (control) or 180 μL of a 10% (w/v) solution of LTAB. After 24 h of incubation at 30° C. at 20 RPM the tubes were centrifuged 5 min. at 9000 g. The supernatants were analysed for HOX activity using the HOX assay as previously described."}, "[7]": {"experiment": "Determination of LTAB by LC-ESI-MS (optimised method) in fermentation supernatants", "details": "0.20% (w/v) LTAB added", "experimental": "The analysis method for the quaternary ammonium compounds was optimised by using a different column, and by using different mobile phase. Two 90 L scale fermentations (Vest0002b with a biomass concentration of 314 g/L wet cells and Vest0003b with a biomass concentration of 332 g/L wet cells) were added LTAB to a concentration of 0.20% (w/v), and HOX was extracted for 24 h. A sample from each fermentation was centrifuged at 10000 g for 10 minutes, and the resulting supernatants were withdrawn for LTAB analysis. The following method was used to quantify the LTAB content in the supernatants by means of LC-ESI-MS on a Hewlett-Packard 1100 HPLC-MS system consisting of the following units:\nThe system was equipped with a PLRP-S, 100 Å, 5 μm, 250×4.6 […] id. (Polymer Laboratories) column. Column temperature was 25° C.\nThe chromatographic conditions were a mobile phase consisting of 0.1% heptafluorobutyric acid in methanol. The column was run with a solvent flow rate of 1.00 mL/min and an injection volume of 5 μL. The samples were diluted 25 fold with methanol and filtered through Gelman GHP Acrodisc 13 mM Minispike […] before injection.\nThe detector settings were the following: SIM parameters: m/z 228.1 (lauroyltrimethylammonium cation). […]"}, "[8]": {"details": "0.4% in 25 mM citric acid pH 6.3"}, "[9]": {"details": "0.5% in 25 mM citric acid pH 6.3"}, "[10]": {"details": "1.0% in 25 mM citric acid pH 6.3"}},
  "note": "Marks after values point to notes of the source that are not given here.",
  "data": [
    {"compound": "lysophosphatidylcholine [lyso-lecithin]", "values": [
      {"measurement": "HOX activity, %", "setting": "[1]; [8]", "value": 260, "unit": "%"}
    ]},
    {"compound": "CCCCCCCCO[C@@H]1O[C@H](CO)[C@@H](O)[C@H](O)[C@H]1O", "note": "[octyl-glycoside, octyl-glucoside]", "values": [
      {"measurement": "extracting effect on HOX", "setting": "[2]; 0.2% and 0.4%", "value": "no significant extracting effect"},
      {"measurement": "HOX activity, %", "setting": "[2]; 0.2%", "value": 130, "unit": "%"},
      {"measurement": "HOX activity, %", "setting": "[2]; 0.4%, 500 rpm", "value": 190, "unit": "%"}
    ]},
    {"compound": "CCCCCCCCCCCCCC[N+](C)(C)C.[Cl-]", "note": "[MTAC, Myristyl Trimethyl Ammonium Chloride]", "values": [
      {"measurement": "Extracted HOX activity normalised with extracted amount with LTAB", "setting": "Hansenula polymorpha [3]", "value": 71}
    ]},
    {"compound": "polyethoxylated octylphenol [Triton X-100]", "values": [
      {"measurement": "HOX activity", "setting": "Hansenula polymorpha [4]; 0.1%", "value": 1.5, "unit": "U/mL"},
      {"measurement": "extracting effect on HOX", "setting": "Hansenula polymorpha [4]; 0.1-1.0%", "value": "no extracting effect"},
      {"measurement": "HOX activity", "setting": "Hansenula polymorpha [4]; 0.2%", "value": 1.6, "unit": "U/mL"},
      {"measurement": "HOX activity", "setting": "Hansenula polymorpha [4]; 0.4%", "value": 1.8, "unit": "U/mL"},
      {"measurement": "HOX activity", "setting": "Hansenula polymorpha [4]; 0.6%", "value": 1.9, "unit": "U/mL"},
      {"measurement": "HOX activity", "setting": "Hansenula polymorpha [4]; 1.0%", "value": 1.9, "unit": "U/mL"}
    ]},
    {"compound": "Lauroyl Trimethyl Ammonium Bromide [LTAB]", "values": [
      {"measurement": "specific activity of glucan lyase, LTAB-treated cells versus mechanical opening", "setting": "H. polymorpha", "value": "~60", "unit": "fold"},
      {"measurement": "Extracted HOX activity normalised with extracted amount with LTAB", "setting": "Hansenula polymorpha [3]", "value": 100},
      {"measurement": "Extracted HOX normalised to 0.4% (w/v) LTAB after 48 h", "setting": "Hansenula polymorpha [5]; 0.2% (w/v), 0 h", "value": 5},
      {"measurement": "Extracted HOX normalised to 0.4% (w/v) LTAB after 48 h", "setting": "Hansenula polymorpha [5]; 0.2% (w/v), 7 h", "value": 15},
      {"measurement": "Extracted HOX normalised to 0.4% (w/v) LTAB after 48 h", "setting": "Hansenula polymorpha [5]; 0.2% (w/v), 17 h", "value": 49},
      {"measurement": "Extracted HOX normalised to 0.4% (w/v) LTAB after 48 h", "setting": "Hansenula polymorpha [5]; 0.2% (w/v), 24 h", "value": 65},
      {"measurement": "Extracted HOX normalised to 0.4% (w/v) LTAB after 48 h", "setting": "Hansenula polymorpha [5]; 0.2% (w/v), 48 h", "value": 78},
      {"measurement": "Extracted HOX normalised to 0.4% (w/v) LTAB after 48 h", "setting": "Hansenula polymorpha [5]; 0.4% (w/v), 0 h", "value": "6 ± 1,"},
      {"measurement": "Extracted HOX normalised to 0.4% (w/v) LTAB after 48 h", "setting": "Hansenula polymorpha [5]; 0.4% (w/v), 7 h", "value": 25},
      {"measurement": "Extracted HOX normalised to 0.4% (w/v) LTAB after 48 h", "setting": "Hansenula polymorpha [5]; 0.4% (w/v), 17 h", "value": 74},
      {"measurement": "Extracted HOX normalised to 0.4% (w/v) LTAB after 48 h", "setting": "Hansenula polymorpha [5]; 0.4% (w/v), 24 h", "value": "83 ± 8,"},
      {"measurement": "Extracted HOX normalised to 0.4% (w/v) LTAB after 48 h", "setting": "Hansenula polymorpha [5]; 0.4% (w/v), 48 h", "value": "100 ± 25,"},
      {"measurement": "Extracted HOX activity normalised to the control tube without LTAB", "setting": "[6]", "value": "3000^c"},
      {"measurement": "share of the added LTAB found in the cell free fraction", "setting": "[7]", "value": "about 27%"}
    ]},
    {"compound": "3-sn-phosphatidylcholine [lecithin]", "values": [
      {"measurement": "HOX activity, %", "setting": "[1]; [8]", "value": 140, "unit": "%"}
    ]},
    {"compound": "CCCCCCCCCC(=O)O", "note": "[capric acid, decanoic acid]", "values": [
      {"measurement": "HOX activity, %", "setting": "[1]; [9]", "value": 120, "unit": "%"},
      {"measurement": "HOX activity, %", "setting": "[1]; [10]", "value": 140, "unit": "%"}
    ]},
    {"compound": "CCCCCCCCCCCC(=O)OC(C)C(=O)OC(C)C(=O)[O-].[Na+]", "note": "(stereo not shown) [emulsifier SSL, Sodium Lauroyl Lactylate]", "values": [
      {"measurement": "HOX activity, %", "setting": "[1]; [9]", "value": 160, "unit": "%"},
      {"measurement": "HOX activity, %", "setting": "[1]; [10]", "value": 140, "unit": "%"}
    ]},
    {"compound": "CCCCCCCCCCCCCCCCCC(=O)[N+](C)(C)C.[Br-]", "note": "[STAB, Stearoyl Trimethyl Ammonium Bromide]", "values": [
      {"measurement": "Extracted HOX activity normalised with extracted amount with LTAB", "setting": "Hansenula polymorpha [3]", "value": 38}
    ]}
  ]
}
